According to patent US3984432A, “Color photographic recording material” (priority 1973, dated 1976):

Assay: Absorption maximum after colour development in a photographic silver halide layer according to Use Example I
Type: physicochemical
Details: not given
Protocol: The compounds of the formulae which follow are prepared according to methods which are in themselves known, from the corresponding 4-equivalentcoupling agents (the corresponding compounds with hydrogen in the position marked with *, in place of the substituents drawn). With regard to methods of manufacture, compare DT-OS or DT-AS 1,236,332, 2,043,271, 1,547,672 or 1,187,477. Next to the formula, the absorption maximum in nm is specified in each case (see footnote to Table I). ##SPC8##
*)After colour development of the coupling agents in a photographic silve
halide layer according to Use Example I
0.3 mmol of coupling agent of the formula (215) is dissolved in 2.0 ml of tricresyl phosphate/methylene chloride (3:7). The methylene chloride is evaporated off, 6.0 ml of an 8% strength aqueous solution of sodium isopropylnaphthalene-sulphonate, 20.0 ml of 6% strength gelatine solution and 3.4 ml of water are added and the mixture is adjusted to pH 6.5 and emulsified for 5 minutes by means of an ultrasonic apparatus with an output of 100 watt.
5.0 of coupling agent emulsion freshly treated with ultrasonics, 3.3 ml of silver bromide emulsion of pH 6.5, containing 1.4% of silver and 6.0% of gelatine, 2.0 ml of 1% strength aqueous solution of the hardener of the formula [formula] and 1.7 ml of water are mixed with one another and cast at 40°C on a substrated glass plate of size 13 cm × 18 cm. After solidifying at 10° C, the plate is dried in a drying cabinet with circulating air at 32° C.
A strip cut to 4.0 cm × 6.5 cm is exposed to 500 Lux/cm^2 under a step wedge for 2 seconds and is subsequently treated at 24° C as follows: […]

SMILES | Abs.max. (single maximum) [nm]
CCCCCCOP(=O)(OCCCCCC)c1ccc(NC(=O)c2cccc(NC(=O)CC(=O)c3ccc(Cl)cc3)c2)cc1 [(145)] | 449
CCCCC(CC)COP(=O)(CCNC(=O)c1ccc(Cl)c(NC(=O)CC(=O)c2ccc(OC)cc2)c1)OCC(CC)CCCC (centres unmarked) [(134)] | 447
COc1ccc(C(=O)CC(=O)Nc2cc(C(=O)NCCCP(=O)(OC(C)C)OC(C)C)ccc2C(=O)NCCCP(=O)(OC(C)C)OC(C)C)cc1 [(131)] | 442
CCOP(=O)(OCC)C(C)(C)NC(=O)c1cccc(NC(=O)c2cccc(NC(=O)CC(=O)c3ccccc3)c2)c1 [(107)] | 444
CCCCC(CC)COP(=O)(CCCNC(=O)c1ccc(Cl)c(NC(=O)CC(=O)c2ccccc2OC)c1)OCC(CC)CCCC (centres unmarked) [(133)] | 436
CC(C)OP(=O)(OC(C)C)C1(C)CC(NC(=O)c2ccc(Oc3ccccc3)c(NC(=O)CC(=O)c3ccc(Cl)cc3)c2)CC(C)(C)C1 (centres unmarked) [(144)] | 441
CCOP(=O)(OCC)C(C)(C)NC(=O)c1cc(NC(=O)CC(=O)c2ccccc2)cc(C(=O)NC(C)(C)P(=O)(OCC)OCC)c1 [(111)] | 440
CCCCOP(=O)(CCCOc1cc(OCCCP(=O)(OCCCC)OCCCC)cc(C(=O)Nc2cccc(NC(=O)CC(=O)C(C)(C)C)c2)c1)OCCCC [(115)] | 435
CCCCOP(=O)(CCCC)Nc1cccc(NC(=O)c2cc(NC(=O)CC(=O)c3ccccc3)ccc2Cl)c1 (centres unmarked) [(141)] | 438
CCOP(=O)(CCCc1ccc(NC(=O)CC(=O)c2ccccc2)cc1)OCC [(101)] | 437
CCCCOP(=O)(CCCOc1cc(OCCCP(=O)(OCCCC)OCCCC)cc(C(=O)Nc2ccc(C)c(NC(=O)CC(=O)C(C)(C)C)c2)c1)OCCCC [(117)] | 445

Same assay, conditions: pyrazolone coupling agents

SMILES | Abs.max., first of two maxima (subsidiary maximum) [nm] | Abs.max., second of two maxima (absorption maximum) [nm]
CCOP(=O)(CCCOc1cccc(C(=O)Nc2ccc(C(=O)NC3=NN(c4c(Cl)cc(Cl)cc4Cl)C(=O)C3)cc2)c1)OCC [(201)] | 432 | 542
CCCCC(CC)COP(=O)(CCCOc1cccc(C(=O)Nc2ccc(NC3=NN(c4ccccc4)C(=O)C3)cc2)c1)OCC(CC)CCCC (centres unmarked) [(420)] | 428 | 529
CCCCOP(=O)(CCCOc1cc(OCCCP(=O)(OCCCC)OCCCC)cc(C(=O)Nc2cccc(C(=O)NC3=NN(c4nc5ccccc5s4)C(=O)C3)c2)c1)OCCCC [(258)] | 550 | 580
CCCCOP(=O)(CCCOc1cccc(C(=O)Nc2ccc(C(=O)NC3=NN(c4c(Cl)cc(Cl)cc4Cl)C(=O)C3)cc2)c1)OCCCC [(211)] | 434 | 543
CC(C)OP(=O)(CCCOc1cc(OCCCP(=O)(OC(C)C)OC(C)C)cc(C(=O)Nc2cccc(C(=O)NC3=NN(c4ccccc4)C(=O)C3)c2)c1)OC(C)C [(238)] | 440 | 530
CCOP(=O)(CCCCCOc1cccc(C(=O)Nc2ccc(C(=O)NC3=NN(c4c(Cl)cc(Cl)cc4Cl)C(=O)C3)cc2)c1)OCC [(207)] | 434 | 540
CC(C)OP(=O)(CCCCCOc1cc(OCCCCCP(=O)(OC(C)C)OC(C)C)cc(C(=O)Nc2cccc(C(=O)NC3=NN(c4c(Cl)cc(Cl)cc4Cl)C(=O)C3)c2)c1)OC(C)C [(243)] | 434 | 544
CCOP(=O)(CCCOc1ccc(C(=O)Nc2ccc(C(=O)NC3=NN(c4c(Cl)cc(Cl)cc4Cl)C(=O)C3)cc2)cc1)OCC [(203)] | 434 | 539
CC(C)OP(=O)(CCCCCOc1cccc(C(=O)Nc2cccc(C(=O)NC3=NN(c4c(Cl)cc(Cl)cc4Cl)C(=O)C3)c2)c1)OC(C)C [(245)] | 434 | 542
CCCCOP(=O)(CCCOc1cc(OCCCP(=O)(OCCCC)OCCCC)cc(C(=O)Nc2cccc(C(=O)NC3=NN(c4ccccc4)C(=O)C3)c2)c1)OCCCC [(229)] | 440 | 532
CCCCOP(=O)(CCCOc1cc(OCCCP(=O)(OCCCC)OCCCC)cc(C(=O)Nc2cccc(C(=O)NC3=NN(c4c(C)cc(C)cc4Cl)C(=O)C3)c2)c1)OCCCC [(261)] | 440 | 535
CCCCOP(=O)(CCCOc1cccc(C(=O)Nc2cccc(NC3=NN(c4ccc(S(C)(=O)=O)cc4)C(=O)C3)c2)c1)OCCCC [(429)] | 430 | 538
CCCCC(CC)COP(=O)(CCCOc1cccc(C(=O)Nc2cccc(C(=O)NC3=NN(c4ccccc4)C(=O)C3)c2)c1)OCC(CC)CCCC (centres unmarked) [(225)] | 440 | 532
CCOP(=O)(CCCCCOc1cccc(C(=O)NC2=NN(c3c(Cl)cc(Cl)cc3Cl)C(=O)C2)c1)OCC [(213)] | 434 | 537
CCCCOP(=O)(CCCOc1cc(OCCCP(=O)(OCCCC)OCCCC)cc(C(=O)Nc2cccc(NC3=NN(c4c(Cl)cc(Cl)cc4Cl)C(=O)C3)c2)c1)OCCCC [(424)] | 427 | 532
CCCCC(CC)COP(=O)(CCCOc1cccc(OCC(=O)Nc2cccc(C(=O)NC3=NN(c4c(Cl)cc(Cl)cc4Cl)C(=O)C3)c2)c1)OCC(CC)CCCC (centres unmarked) [(270)] | 438 | 544
CCCCOP(=O)(CCCOc1cc(OCCCP(=O)(OCCCC)OCCCC)cc(C(=O)NC2=NN(c3nc4ccccc4s3)C(=O)C2)c1)OCCCC [(257)] | 430 | 537
CCCCOP(=O)(CCCOc1cccc(C(=O)Nc2ccc(NC3=NN(c4ccccc4)C(=O)C3)cc2)c1)OCCCC [(417)] | 428 | 530
CCCCOP(=O)(CCCOc1cc(OCCCP(=O)(OCCCC)OCCCC)cc(C(=O)NC2=NN(c3ccc(C#N)cc3)C(=O)C2)c1)OCCCC [(253)] | 440 | 540
CCCCC(CC)COP(=O)(CCCOc1cccc(NC2=NN(c3cccc(Cl)c3)C(=O)C2)c1)OCC(CC)CCCC (centres unmarked) [(413)] | 428 | 533
CCCCOP(=O)(CCCOc1ccc(C(=O)Nc2cccc(C(=O)NC3=NN(c4c(Cl)cc(Cl)cc4Cl)C(=O)C3)c2)c(OCCCP(=O)(OCCCC)OCCCC)c1)OCCCC [(248)] | 436 | 541
CCCCOP(=O)(CCCOc1cc(OCCCP(=O)(OCCCC)OCCCC)cc(C(=O)Nc2ccc(Cl)c(NC3=NN(c4c(Cl)cc(Cl)cc4Cl)C(=O)C3)c2)c1)OCCCC [(428)] | 430 | 537
CCOP(=O)(CCCCCOc1cccc(C(=O)Nc2cccc(C(=O)NC3=NN(c4c(Cl)cc(Cl)cc4Cl)C(=O)C3)c2)c1)OCC [(230)] | 434 | 544
CCCCOP(=O)(CCCOc1cc(OCCCP(=O)(OCCCC)OCCCC)cc(C(=O)Nc2cccc(C(=O)NC3=NN(c4c(C)cc(OC)cc4Cl)C(=O)C3)c2)c1)OCCCC [(260)] | 440 | 535
CCOP(=O)(CCCc1ccc(NC2=NN(c3cccc(Cl)c3)C(=O)C2)cc1)OCC [(410)] | 438 | 532
CCCCC(CC)COP(=O)(CCCOc1cc(OCCCP(=O)(OCC(CC)CCCC)OCC(CC)CCCC)cc(C(=O)Nc2cccc(C(=O)NC3=NN(c4c(C)cc(C)cc4Cl)C(=O)C3)c2)c1)OCC(CC)CCCC (centres unmarked) [(263)] | 440 | 534
CCOP(=O)(CCCOc1cccc(C(=O)Nc2cccc(NC3=NN(c4ccccc4)C(=O)C3)c2)c1)OCC [(414)] | 430 | 530
CCCCC(CC)COP(=O)(CCCOc1cccc(C(=O)Nc2cccc(NC(=O)NC3=NN(c4c(Cl)cc(Cl)cc4Cl)C(=O)C3)c2)c1)OCC(CC)CCCC (centres unmarked) [(274)] | 430 | 546
CCCCC(CC)COP(=O)(CCCOc1cccc(C(=O)Nc2cccc(C(=O)NC3=NN(c4cccc(Cl)c4)C(=O)C3)c2)c1)OCC(CC)CCCC (centres unmarked) [(256)] | 438 | 534
CCOP(=O)(CCCCCOc1cc(OCCCCCP(=O)(OCC)OCC)cc(C(=O)NC2=NN(c3c(Cl)cc(Cl)cc3Cl)C(=O)C2)c1)OCC [(214)] | 432 | 540
